{"source": "patent US5212072A", "about": "“Polypeptides complementary to peptides or proteins having an amino acid sequence or nucleotide coding sequence at least partially known and methods of design therefor” (Board of Regents, The University of Texas System, priority 1991, dated 1993)", "key": {"bovine gamma-endorphin": {"target": "T1, bovine gamma-endorphin (Bos taurus, UniProt P01190)", "T1 construct": "purchased Boehringer Mannheim (Indianapolis, Ind.); host or cells: chemical synthesis", "test": "ELISA binding of gamma-endorphin to coated wells", "conditions": "gamma-odne 40 ug/well vs insulin or BSA; absorbance 405 nm; FIG. 7", "description": "Synthetic bovine gamma-endorphin was obtained from Boehringer Mannheim (Indianapolis, Ind.) and rabbit antibody for synthetic gamma-endo was obtained from Accurate Biochemicals (Westbury, N.Y.).\nThe wells of a 96-well round-bottomed microtiter plate were coated (by the procedure described in Example 1B) with gamma-odne (40 ug/well), insulin (20U/well) or bovine serum albumin (BSA,200 ug/well . Varying concentrations of gamma-endorphin (as shown on the abscissa in FIG. 7) were incubated in the coated wells for 1 hr, after which the plates were thrice washed with PBS-Tween buffer. The wells were then treated with rabbit antibody for gamma-endorphin, washed, and then treated with goat antibody against rabbit immunoglobulin the goat antibody being conjugated to alkaline phosphatase. After washing away unbound goat antibody conjugate, the bound alkaline phosphatase activity was measured with p-nitrophenylphosphate as earlier described. The results of the above manipulations are shown in FIG. 7 where the extent of absorbance at 405 nm reflects the degree of gamma-endorphin binding to wells coated with gamma-odne, insulin or BSA. […] The shaded area in FIG. 7 represents the extent of gamma-endorphin binding in the presence of soluble excess of gamma-odne. Thus it is shown that a second pair of complementary peptides interacts in a manner showing affinity and apparent congruence."}, "[1]": {"test_system": "opiate receptors on NG108-15 cells", "test": "Inhibition of 125I-beta-endorphin binding to NG108-15 cells", "conditions": "125I-beta-endorphin 10^-11 M", "excerpt": "NG108-15 cells are known to contain receptors for beta-endorphin called opiate receptors. In addition to beta-endorphin, gamma-endorphin and several analogs of beta-endorphin bind to these opiate receptors. The peptide, gamma-ODNE, complementary to gamma-endorphin described in Example II was examined for its ability to inhibit the binding of ^125 I-beta-endorphin to opiate receptors on NG108-15 cells. Gamma-endorphin is a fragment of the larger peptide beta-endorphin.\nSeventy percent of the total binding was specific by conventional criteria.\nFor this experiment, ^1251 -beta-endorphin was preincubated 30 minutes with various amounts of the complementary peptide, gamma-ODNE, before a 30 minute (37° C.) incubation with NG108-15 cells in microtiter wells. After the incubation, cells were washed 3 times and cell associated radioactivity wad determined with a Packard Multi-Prias gamma counter."}, "[2]": {"target": "T2, mouse adrenal tumor cell ACTH receptor (Mus musculus, UniProt Q64326)", "T2 construct": "Duplicate cultures of mouse adrenal tumor (Y-1) cells in microtiter plates; endogenous in cells; host or cells: mouse adrenal tumor (Y-1) cells", "T2 sequence (Q64326 whole entry)": "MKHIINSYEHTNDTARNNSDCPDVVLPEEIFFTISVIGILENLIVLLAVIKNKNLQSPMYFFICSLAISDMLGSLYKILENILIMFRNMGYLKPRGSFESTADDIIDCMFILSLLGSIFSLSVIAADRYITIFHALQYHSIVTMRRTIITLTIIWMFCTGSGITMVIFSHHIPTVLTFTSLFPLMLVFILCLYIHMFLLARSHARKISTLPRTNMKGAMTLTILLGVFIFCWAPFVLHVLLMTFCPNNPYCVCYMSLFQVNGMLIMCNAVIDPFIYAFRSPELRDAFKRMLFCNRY", "T2 sequence (Q9D159 whole entry partner)": "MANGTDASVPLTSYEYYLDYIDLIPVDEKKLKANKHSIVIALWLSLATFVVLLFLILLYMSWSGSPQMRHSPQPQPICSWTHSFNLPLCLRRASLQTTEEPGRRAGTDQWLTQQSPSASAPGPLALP", "test": "Glucocorticoid hormone production by mouse adrenal tumor (Y-1) cells", "type": "cell-based", "conditions": "ACTH 10 microunits/well, 18 hrs", "description": "An induction of glucocorticoid hormone production by ACTH and anti-HTCA was found with cultured mammalian cells. Duplicate cultures of mouse adrenal tumor (Y-1) cells in microtiter plates were treated with culture media, ACTH (10 microunits/well) or various dilutions of the anti-HTCA.\n^a Duplicate cultures of mouse adrenal (Y1) cells in microtiter plate\nwere treated with culture media, ACTH (10 microunits/well) or the\nindicated dilutions of antibody to HTCA. After 18 hrs incubation at\n37° in 4% CO2, replicate cultures were pooled and assayed for\nglucocorticoid hormone production by a radioimmunoassay (RIA) for […]"}, "[3]": {"test_system": "mouse adrenal tumor (Y-1) cells", "test": "Binding of anti-HTCA to affixed mouse adrenal tumor (Y-1) cells", "conditions": "absorbency at 405 nM; FIG. 5", "description": "Mouse adrenal tumor (Y-1) cells were affixed by glutaraldehyde in flat bottom wells of a microtiter plate. The affixed cells were then treated with rabbit anti-KLH or rabbit anti-HTCA alone or in the presence of several levels of ACTH. After washing, the microtiter wells were treated with goat antibody to rabbit immunoglobulin the goat antibody being coupled to the enzyme alkaline phosphatase. After washing away unbound antibody-phosphatase complex, p-nitrophenyl phosphate was added and the enzyme dependent development of absorbency at 405 nM was monitored. […] ACTH and anti-HTCA appeared competitive for the same binding site on the mouse adrenal tumor (Y-1) cells. Rabbit anti KLH had no effect (shaded region)"}, "HTCA": {"test_system": "HTCA", "sequence (as listed by the source)": "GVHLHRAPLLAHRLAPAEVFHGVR", "test": "Solid phase radiobinding assay for serum ACTH on HTCA-coated wells", "type": "binding", "conditions": "for Log10 Dilution at 50% inhibition: graphic interpolation", "description": "Complementary peptide (HTCA) was dissolved in phosphate buffered saline (PBS) at 1 mg/ml and 200 ul aliquots were placed in wells of a 96 well polyvinyl assay plate (Microtest III, Falcon Cat. #3911). HTCA was allowed to coat the wells overnight at 4° C. The coating solution was removed and the wells were washed three times with PBS. Radiolabeled ACTH (^125 I-ACTH, New England Nuclear NEX-65) was diluted into PBS containing 0.0005% TWEEN-20 so as to deliver 50 pg (or about 30,000 cpm) in a 20 ul volume.\nSerum samples were prepared in a 96 well tissue culture plate by serial dilution of serum into PBS/TWEEN 20 to give a final volume of 180 ul/well. The serum samples were then transferred to the HTCA coated a ssay plate and allowed to incubate. Finally, 20 ul of ^125 I-ACTH solution was added, incubated, and the total sample of 200 ul was removed. After washing three times with PBS, the wells were cut from the plate and counted in a gamma counter.\nSerum samples used in this study contained either 50 pg/ml or 500 pg/ml of ACTH added to fetal calf serum (FCS)."}, "female ICR mice": {"test_system": "female ICR mice", "test": "Induction of catatonia in mice by i.c. injection of serum", "type": "in vivo", "conditions": "simultaneous i.c. injection 0.2 mg", "excerpt": "It is well known that large doses of opiate-like substances can induce a catatonic state in animals which is inhibited or reversed by treatment with the opiate antagonist naloxone. In analogy with the results in earlier examples, the ability of a peptide (qamma-ODNE) complementary to an opiate peptide, qamma-endorphin, to induce antibodies that have opiate properties was examined.\nGamma-ODNE (Example II) was conjugated to Keyhole Limpet Hemocyanin ([…]) and used with Freund's adjuvant to generate rabbit antibodies in a conventional manner (see Example 1F). Both normal and induced rabbit sera were injected intracerebroventicularly (i.c.) into female ICR mice."}}, "note": "Where no end group is shown, it is not given here.", "data": [{"molecule": "QRDKGRLALLGGHEPAV [gamma-odne, H2 N--gln--arg--asp--lys--gly--arg--leu--ala--leu--leu--gly--gly--his--glu--pro--ala--val--COOH]", "values": [{"measurement": "gamma-endorphin binding to coated wells (in words)", "setting": "bovine gamma-endorphin", "result": "significantly bound"}, {"measurement": "% Inhibition of Specific 125I-beta-endorphin", "setting": "[1]; 10^-4 M", "result": "75.0 ± 0.6", "unit": "%"}, {"measurement": "% Inhibition of Specific 125I-beta-endorphin", "setting": "[1]; 10^-5 M", "result": "36.0 ± 2.1", "unit": "%"}, {"measurement": "% Inhibition of Specific 125I-beta-endorphin", "setting": "[1]; 10^-6 M, 30 min preincubation", "result": "24.7 ± 3.9", "unit": "%"}]}, {"molecule": "ACTH: Synthetic ACTH, fragment 1-24, from Organon; unlabelled ACTH competitor in binding assays", "values": [{"measurement": "Corticosterone equivalents, Experiment 1", "setting": "[2]", "result": 1.08, "unit": "µg/mL"}, {"measurement": "Corticosterone equivalents, Experiment 2", "setting": "[2]", "result": 1.42, "unit": "µg/mL"}, {"measurement": "effect on binding of anti-HTCA to affixed Y-1 cells", "setting": "[3]", "result": "blocked binding of the anti-HTCA in a dose dependent manner"}, {"measurement": "% Inhibition of Specific Binding", "setting": "HTCA; 50 pg/ml ACTH in FCS, Log10 Dilution -0.5", "result": 73, "unit": "%"}, {"measurement": "% Inhibition of Specific Binding", "setting": "HTCA; 50 pg/ml ACTH in FCS, Log10 Dilution -1.0", "result": 40, "unit": "%"}, {"measurement": "% Inhibition of Specific Binding", "setting": "HTCA; 50 pg/ml ACTH in FCS, Log10 Dilution -1.5", "result": 44, "unit": "%"}, {"measurement": "% Inhibition of Specific Binding", "setting": "HTCA; 50 pg/ml ACTH in FCS, Log10 Dilution -2.0", "result": 9, "unit": "%"}, {"measurement": "% Inhibition of Specific Binding", "setting": "HTCA; 50 pg/ml ACTH in FCS, Log10 Dilution -2.5", "result": 1, "unit": "%"}, {"measurement": "% Inhibition of Specific Binding", "setting": "HTCA; 50 pg/ml ACTH in FCS, Log10 Dilution -3.0", "result": 0, "unit": "%"}, {"measurement": "% Inhibition of Specific Binding", "setting": "HTCA; 50 pg/ml ACTH in FCS, Log10 Dilution -3.5", "result": 0, "unit": "%"}, {"measurement": "Log10 Dilution at 50% inhibition", "setting": "HTCA; 50 pg/ml serum sample", "result": -1.1}, {"measurement": "% Inhibition of Specific Binding", "setting": "HTCA; 500 pg/ml ACTH in FCS, Log10 Dilution -0.5", "result": 90, "unit": "%"}, {"measurement": "% Inhibition of Specific Binding", "setting": "HTCA; 500 pg/ml ACTH in FCS, Log10 Dilution -1.0", "result": 77, "unit": "%"}, {"measurement": "% Inhibition of Specific Binding", "setting": "HTCA; 500 pg/ml ACTH in FCS, Log10 Dilution -1.5", "result": 57, "unit": "%"}, {"measurement": "% Inhibition of Specific Binding", "setting": "HTCA; 500 pg/ml ACTH in FCS, Log10 Dilution -2.0", "result": 53, "unit": "%"}, {"measurement": "% Inhibition of Specific Binding", "setting": "HTCA; 500 pg/ml ACTH in FCS, Log10 Dilution -2.5", "result": 35, "unit": "%"}, {"measurement": "% Inhibition of Specific Binding", "setting": "HTCA; 500 pg/ml ACTH in FCS, Log10 Dilution -3.0", "result": 32, "unit": "%"}, {"measurement": "% Inhibition of Specific Binding", "setting": "HTCA; 500 pg/ml ACTH in FCS, Log10 Dilution -3.5", "result": 20, "unit": "%"}, {"measurement": "Log10 Dilution at 50% inhibition", "setting": "HTCA; 500 pg/ml serum sample", "result": -2.0}]}, {"molecule": "C=CCN1CC[C@]23c4c5ccc(O)c4O[C@H]2C(=O)CC[C@@]3(O)[C@H]1C5", "note": "[naloxone]", "values": [{"measurement": "effect on serum-induced catatonia", "setting": "female ICR mice", "result": "reversed"}]}]}
